Laboratory results as given in patent publication US8791155B2, “Chroman derivatives” (Edison Pharmaceuticals, Inc., priority 2003, dated 2014).

Key:
[1] = target: T1, human recombinant 5-lipoxygenase (Homo sapiens, UniProt P09917); assay: 5-Lipoxygenase enzyme assay; type: biochemical; conditions: 70 μM arachidonic acid, pH 7.4, 10 minute incubation; read-out: IC50, inhibition of 5-Lipoxygenase
T1 construct: purchased Cayman 60402
T1 sequence (P09917 1-674): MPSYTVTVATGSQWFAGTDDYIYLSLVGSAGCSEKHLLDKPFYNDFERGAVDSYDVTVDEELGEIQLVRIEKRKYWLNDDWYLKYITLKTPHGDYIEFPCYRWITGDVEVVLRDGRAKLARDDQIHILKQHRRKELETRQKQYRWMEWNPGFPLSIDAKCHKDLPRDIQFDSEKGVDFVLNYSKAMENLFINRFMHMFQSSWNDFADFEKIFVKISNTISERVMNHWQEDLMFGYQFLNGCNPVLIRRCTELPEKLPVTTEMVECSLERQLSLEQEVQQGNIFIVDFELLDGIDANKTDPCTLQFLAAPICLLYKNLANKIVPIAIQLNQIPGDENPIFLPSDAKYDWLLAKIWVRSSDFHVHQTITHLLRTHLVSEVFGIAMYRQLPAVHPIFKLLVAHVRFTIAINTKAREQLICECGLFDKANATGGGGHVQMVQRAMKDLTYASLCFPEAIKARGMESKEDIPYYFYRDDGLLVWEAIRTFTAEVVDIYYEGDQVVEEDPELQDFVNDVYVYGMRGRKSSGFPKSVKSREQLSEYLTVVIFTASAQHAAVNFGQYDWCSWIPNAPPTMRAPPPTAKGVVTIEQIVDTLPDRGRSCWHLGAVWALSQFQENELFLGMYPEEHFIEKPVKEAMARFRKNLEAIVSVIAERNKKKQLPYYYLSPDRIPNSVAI
From the text: (§1) In vitro evaluation of the ability of a composition to inhibit the enzymes 5-lipoxygenase, 15-lipoxygenase, or 12/15 lipoxygenase as described in Walidge, N. B. et al Anal. Biochem., 231: 354-358 (1995) using a high throughput colorimetric method; as well as in vitro evaluation of inhibiting LTB4 is described in Examples.
This procedure was used for measuring the enzymatic activity of human recombinant 5-lipoxygenase using a colorimetric method based on the ferric oxidation of xylenol orange.
(§2) • 96 well flat bottom microfilter plates (VWR, Catalog #62402-933 9295) • Lipoxygenase screening assay buffer (Cayman, Catalog #760710) • Human recombinant 5-lipoxygenase (Cayman, Catalog #60402) • Arachidonic Acid (Sigma, Catalog #A3555) • Xylenol orange tetrasodium salt (Aldrich, Catalog #227854) • Iron (II) sulfate heptahydrate (Sigma, Catalog #F7002) • Sulfuric acid (95-98%) [18M]—Methanol Procedure
(§3) Human recombinant 5-lipoxygenase (Cayman Cat #60402) was used in this assay. The test compound and/or vehicle was added to 0.51-1 5-lipoxygenase in 50 mM Tris-HCl buffer, pH 7.4. The reaction was initiated by addition of 70 μM arachidonic acid in Tris-HCl buffer, pH 7.4, and terminated after a 10 minute incubation at room temperature by addition of FOX reagent (25 mM sulphuric acid, 100 μM xylenol orange, 100 μM iron (II) sulphate, methanol:water 9:1). The yellow color of acidified xylenol orange was converted to a blue color by the lipid hydroperoxide-mediated oxidation of Fe 2+ ions and the interaction of the resulting Fe 3+ ions with the dye. The complex was allowed to form during a 1 hour incubation at room temperature with shaking. Absorbance of the Fe 3+ complex was then measured at […] using a spectrophotometer.
(§4) Negative controls contained enzyme during the incubation step but substrate was not added until after the FOX reagent.
Compounds were screened at 5 concentrations in triplicate starting at 10 μM

[2] = test system: release of the leukotriene LTB4 from MPRO cell line; assay: LTB4 assay (competitive ELISA); type: cell-based; conditions: Mus musculus; 1 μM calcium ionophore A23187, 1 hour; read-out: EC50, inhibition of LTB4 production
From the text: This procedure was used for measuring the release of the leukotriene LTB4 from a neutrophil cell line using a competitive ELISA technique.
• MPRO cell line (ATCC, Catalog #CRL-11422) • Calciumionophore (A23187) (Sigma, Catalog #C7522) • Nordihydroguaiaretic acid (NDGA) (BioMol, Catalog #E1101-0001) • Retinoic Acid (all-trans) (ATRA) (Sigma, Catalog #95152) • Sterile, tissue-culture treated 96-well plates (Corning, Catalog #3614) Materials for LTB4 ELISA • Precoated (Mouse Anti-Rabbit IgG) EIA 96 Well Strip Plates (Cayman, Catalog #400004) • Leukotriene B4 AChE Tracer (Cayman Catalog #420110) • Leukotriene B4 EIA Antiserum (Cayman Catalog #420112) • Ellman's Reagent (Cayman Catalog #400050) • EIA Buffer Concentrate (10×) (Cayman Catalog #400060) • Wash Buffer Concentrate (400×) (Cayman Catalog #400062) • Plastic plate covers (Cayman Catalog #400012) Procedure
A mouse promyelocytic cell line (MPRO) was used in this assay. These cells are committed immature neutrophils that can be differentiated into mature neutrophils by treatment with 10 μM all-trans retinoic acid for 72 hours
Following 72 hours of differentiation, cells were stimulated with 1 μM of a calcium ionophore (A23187) in the presence or absence of test compound or vehicle for 1 hour at 370 C. After this time, supernatant was removed from the cells and the LTB4 levels were determined following manufacturer's instructions, using a Leukotriene B4 EIA kit from Cayman (Cat #520111)
The negative controls were media samples from differentiated but unstimulated cells.
The compounds were screened at 5 concentrations in quadruplicate starting at 10 μM

[3] = target: T2, porcine leukocyte 12/15-lipoxygenase (Sus scrofa, UniProt P16469); assay: 12/15-Lipoxygenase enzyme assay; type: biochemical; conditions: 70 μM arachidonic acid, pH 7.4, 10 minute incubation; read-out: IC50, inhibition of 12/15-Lipoxygenase
T2 construct: purchased Cayman 60300
T2 sequence (P16469 1-663): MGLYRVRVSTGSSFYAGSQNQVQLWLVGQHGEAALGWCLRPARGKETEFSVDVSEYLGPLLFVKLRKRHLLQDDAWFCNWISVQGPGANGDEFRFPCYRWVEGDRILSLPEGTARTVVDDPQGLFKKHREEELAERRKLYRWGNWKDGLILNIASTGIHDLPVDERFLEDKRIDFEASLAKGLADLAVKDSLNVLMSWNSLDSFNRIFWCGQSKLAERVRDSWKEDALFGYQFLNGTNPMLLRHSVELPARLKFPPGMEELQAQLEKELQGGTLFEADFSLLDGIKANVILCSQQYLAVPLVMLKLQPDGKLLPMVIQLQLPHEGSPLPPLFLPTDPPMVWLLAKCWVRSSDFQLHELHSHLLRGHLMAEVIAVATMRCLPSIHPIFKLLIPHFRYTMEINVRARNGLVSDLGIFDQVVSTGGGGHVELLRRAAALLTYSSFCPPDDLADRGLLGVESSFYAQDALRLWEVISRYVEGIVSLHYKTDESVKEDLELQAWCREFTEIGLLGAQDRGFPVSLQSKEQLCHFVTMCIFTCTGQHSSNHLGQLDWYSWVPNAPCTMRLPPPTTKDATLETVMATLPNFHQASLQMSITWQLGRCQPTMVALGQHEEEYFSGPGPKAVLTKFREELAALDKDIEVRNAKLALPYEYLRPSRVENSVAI
From the text: as §1
This procedure was used for measuring the enzymatic activity of porcine leukocyte 12/15-lipoxygenase using a colorimetric method based on the ferric oxidation of xylenol orange.
as §2, with “Porcine leukocyte 12/15-lipoxygenase” for “Human recombinant 5-lipoxygenase”, “#60300)” for “#60402)”, “[18M] • Methanol” for “[18M]—Methanol”
as §3, with “Porcine Leukocyte 12/15-lipoxygenase” for “Human recombinant 5-lipoxygenase”, “#60300)” for “#60402)”, “Test” for “The test”, “1.3 U 12/15-lipoxygenase” for “0.51-1 5-lipoxygenase”
as §4
Compounds are screened at 5 concentrations in triplicate starting at 10 μM

[4] = test system: dopaminergic neuronal cell line; assay: High glutamate-induced oxidative stress assay (HGOS); type: cell-based; conditions: Mus musculus; 30 mM glutamate, 16 hrs; read-out: EC50, protection against HGOS cell injury and cell death
From the text: Protection against redox stress can be evaluated in cell culture using high glutamate induced oxidative stress (HGOS) in mouse dopaminergic cell lines. The cytotoxic effect of glutamate is not due to excitotoxicity, as this cell line is devoid of inotropic glutamate receptors. Rather, the glutamate-induced toxicity of dopaminergic cells is associated with an inhibition of cystine transport which subsequently leads to depletion of intracellular glutathione (GSH) levels (Murphy T. H., et al. Neuron 2, 1547-1558, 1989), activation of neuronal 12-lipoxygenase (Li, Y. et al., Neuron 19, 453-463, 1997), increased ROS production (Tan S. et al., J. Cell Biol. 141, 1423-1432, 1998) and elevated intracellular Cat^2+ (Li, Y. et al., see supra). Some molecules were measured for their ability to protect cells against glutamate-induced stress and the assay is detailed in Examples.
This procedure was used to induce high glutamate-induced oxidative stress (HGOS) in a dopaminergic neuronal cell line. Using this assay the potency and efficacy of test articles against HGOS neuronal cell injury and cell death was established in a high throughput manner.
• Dopaminergic neuronal cell lines • DMEM-No Glucose (Life Technologies Cat #11966-025) • L-glutamine (Life Technologies Cat #25030-081) • L-glutamic acid, monosodium salt (Sigma Cat #G5889) • D-glucose (Sigma Cat #G-6151) • 10×HBSS buffer (pH 7.4) (950 ml Pyrogen-free water, 2.44 g/L MgCl2.6H20, 3.73 g/L KCl, 59.58 g/L Hepes, 58.44 g/L NaCl, 1.36 g/L KH2PO4, 1.91 g/L CaCl2.2H2O and pH to […] with HCl) • Cell Tracker Green fluorescent dye (Molecular Probes, Cat #2925). Prepare a 5NM solution in pre-warmed HBSS just prior to use. • Sterile 96-well plates precoated with poly-D-lysine (Corning Catalog #3665) • 96-well deep well mother plate, DyNA Block 1000 (VWR Catalog #40002-008) Neuronal Cells
The cells were seeded into 96-well plates at a density of 2000 per well and left to grow for 72 hours in a 33° C. incubator with 5% CO2 in air atmosphere. The passage number of the cells for each assay experiment were no later than p11 in order to minimize experimental variation.
All compounds were dissolved in DMEM-No Glu containing 1 mM glucose, 30 mM glutamate and 1× Pen/Strep. DMEM-No Glu with 1 mM glucose and 1× P/S was used as the negative control, DMEM-No Glucose with 1 mM glucose, […] glutamate was used as a positive control and 100 NM Glutathione was added to the positive control as a standard. All of the procedures for this involving the making and dilution of compounds were performed using aseptic conditions and with minimal light.
The plates were removed from the incubator and examined under the microscope for morphological appearance and density. Using an aseptic technique and an 8-channel aspirator the media was carefully removed from the cells and replaced with 200 μI of 1×HBSS. This was done as quickly as possible to prevent the cells drying out. The plates were then placed in the humidified 37° C. incubators of the Biomek 2000 Side Loader. Four plates were washed at a time so as to minimize the time that the cells were sitting in 1×HBSS prior to addition of the compound test solution. Experimental Setup
The Beckman Biomek workstations were used to load the compounds and controls from the mother plates onto the cell plates that were prewashed with HBSS under sterile conditions. The plates were incubated in the upper HTS incubator at 37° C. in 5% CO2 for exactly 16 hrs. The following day, using the Beckman Biomek workstations, the plates were removed from the incubator. Using Cell Tracker Addition, the compounds were removed from the plates, washed once with […] of pre-warmed 1×HBSS and then 100 μL of 5 μM Cell Tracker Green was added to each well. The plates were incubated at 37° C. for 30 min to allow the dye to enter the cell and be cleaved by the esterases. […]

## Cc1cc(C2(C)CCc3cc(O)c(C)c(C)c3O2)c(C)s1 (stereo not shown) [2-(2,5-Dimethyl-thiophen-3-yl)-2,7,8-trimethyl-chroman-6-ol]
[1]
  IC50: < 1000 nM
[2]
  EC50: < 1000 nM

## Cc1c(C)c2c(c(C)c1O)CCC(C)(c1cccs1)O2 (stereo not shown) [2,5,7,8-Tetramethyl-2-thiophen-2-yl-chroman-6-ol]
[1]
  IC50: < 1000 nM
[2]
  EC50: < 1000 nM
[3]
  IC50: < 1000 nM

## Cc1c(C)c2c(c(-c3ccc(C(=O)O)cc3)c1O)CCC(C)(C)O2 [4-(6-Hydroxy-2,2,7,8-tetramethyl-chroman-5-yl)-benzoic acid]
[2]
  EC50: < 1000 nM
[4]
  EC50: < 5000 nM

## Cc1c(C)c2c(c(-c3ccco3)c1O)CCC(C)(C)O2 [5-Furan-2-yl-2,2,7,8-tetramethyl-chroman-6-ol]
[1]
  IC50: < 1000 nM
[2]
  EC50: < 1000 nM
[3]
  IC50: < 1000 nM

## Cc1cc(C2(C)CCc3c(C)c(O)c(C)c(C)c3O2)c(C)s1 (stereo not shown) [2-(2,5-Dimethyl-thiophen-3-yl)-2,5,7,8-tetramethyl-chroman-6-ol]
[1]
  IC50: < 1000 nM
[2]
  EC50: < 1000 nM
[3]
  IC50: < 1000 nM

## Cc1c(C)c2c(c(-c3cccc([N+](=O)[O-])c3)c1O)CCC(C)(C)O2 [2,2,7,8-Tetramethyl-5-(3-nitro-phenyl)-chroman-6-ol]
[2]
  EC50: < 1000 nM

## Cc1c(C)c2c(c(-c3cccnc3)c1O)CCC(C)(C)O2 [2,2,7,8-Tetramethyl-5-pyridin-3-yl-chroman-6-ol]
[2]
  EC50: < 1000 nM
[4]
  EC50: < 5000 nM
